In patent US7700593B2, “Imidazo- and triazolo-pyridine compounds and methods of use thereof” (Amgen Inc., priority 2006, dated 2010):
Like-named read-outs stand apart in the source and are kept apart here.

Key:
p38α = p38α (Homo sapiens, UniProt Q16539); assay: p38 in-vitro HTRF enzyme assay; assay type: biochemical; details: IC50 value ranges
How it was run: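 Activated recombinant human p38α with ATP and 100 nM GST-ATF2-Avitag, 1 h at RT in Tris pH 7.5/MgCl2 buffer; compound 10-point 3-fold series from about 1 μM final. HTRF 665/620 nm ratio; IC50 from 4-parameter fit, Ki via Cheng-Prusoff with experimental ATP Km.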

THP1 cells = assay: Lipopolysaccharide-activated THP1 cell TNF production assay; assay type: cell-based, human; details: LPS-induced TNF-α production in THP1 cells
How it was run: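 THP1 cells at 1E6/mL were stimulated with LPS (1 μg/mL prepared stock) alongside 3-fold serially diluted compound for 3 h at 37 °C. Secreted TNF-α was quantified by electrochemiluminescence sandwich immunoassay. Percent of DMSO control was fitted to a 4-parameter logistic equation.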

monocytes = assay: Lipopolysaccharide-activated monocyte TNF production assay (LPS induced TNF release); assay type: cell-based, human; details: LPS induced TNF release from monocytes, read-out: LPS induced TNFa
How it was run: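 Adherent monocytes from human PBMCs were pretreated with compound 60 min, then stimulated with E. coli LPS (30 ng/mL stock added) for 4 h at 37 °C. Supernatant TNF-α measured by sandwich ELISA; concentration giving 50% TNF reduction derived by polynomial fit.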

Chain of p38α (Q16539 whole entry): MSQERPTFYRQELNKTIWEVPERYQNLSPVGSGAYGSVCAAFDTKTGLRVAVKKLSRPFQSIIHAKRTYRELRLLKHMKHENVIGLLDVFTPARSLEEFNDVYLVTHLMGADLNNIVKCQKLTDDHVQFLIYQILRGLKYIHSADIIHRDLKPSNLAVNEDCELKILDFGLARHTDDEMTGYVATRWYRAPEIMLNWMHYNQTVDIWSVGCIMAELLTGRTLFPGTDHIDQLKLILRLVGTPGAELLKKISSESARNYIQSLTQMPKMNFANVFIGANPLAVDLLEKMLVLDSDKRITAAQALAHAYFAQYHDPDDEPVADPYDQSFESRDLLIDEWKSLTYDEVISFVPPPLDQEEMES

Row | Structure (SMILES) | IC50 (p38α) | IC50 (THP1 cells; Homo sapiens, THP-1) | IC50 (monocytes; Homo sapiens, Monocyte) | IC50 (THP1 cells; read-out: THP-1 cell assay) | IC50 (monocytes)
1 | Cc1ccc(C(=O)NC2CC2)cc1-c1ccn2c(C(F)(F)F)nnc2c1 [Example 102, N-cyclopropyl-4-methyl-3-(3-(trifluoromethyl)[1,2,4]triazolo[4,3-a]pyridin-7-yl)benzamide] | 100 to 250 nM | 250 to 1000 nM | 250 to 1000 nM |  | 
2 | Cc1ccc(C(=O)NC2(C)CC2)cc1-c1ccn2c(-c3ccc(S(C)(=O)=O)cc3)nnc2c1 [Example 13, 4-methyl-N-(1-methylcyclopropyl)-3-(3-(4-(methylsulfonyl)phenyl)[1,2,4]triazolo[4,3-a]pyridin-7-yl)benzamide] | 25 to 100 nM | 250 to 1000 nM | 250 to 1000 nM |  | 
3 | Cc1ccc(C(=O)NC2CC2)cc1-c1ccn2c(-c3cccnc3)nnc2c1 [Example 29, N-cyclopropyl-4-methyl-3-(3-(3-pyridinyl)[1,2,4]triazolo[4,3-a]pyridin-7-yl)benzamide] | 100 to 250 nM | 100 to 250 nM | 100 to 250 nM |  | 
4 | Cc1ccc(C(=O)NC(C)C)cc1-c1ccn2c(-c3ccccc3Cl)nnc2c1 [Example 43, 3-(3-(2-chlorophenyl)[1,2,4]triazolo[4,3-a]pyridin-7-yl)-4-methyl-N-(1-methylethyl)benzamide] | 25 to 100 nM | 100 to 250 nM | 250 to 1000 nM |  | 
5 | Cc1ccc(C(=O)NC2CC2)cc1-c1ccn2c(CC(F)(F)F)nnc2c1 [Example 31, N-cyclopropyl-4-methyl-3-(3-(2,2,2-trifluoroethyl)[1,2,4]triazolo[4,3-a]pyridin-7-yl)benzamide] | 25 to 100 nM | 100 to 250 nM | 250 to 1000 nM |  | 
6 | Cc1ccc(C(=O)NC2CC2)cc1-c1ccn2c(C3CCCC3)nnc2c1 [Example 95, 3-(3-cyclopentyl[1,2,4]triazolo[4,3-a]pyridin-7-yl)-N-cyclopropyl-4-methylbenzamide] | < 25 nM | < 25 nM | 25 to 100 nM |  | 
7 | Cc1ccc(C(=O)Nc2ccnn2C)cc1-c1ccn2c(-c3sccc3C)nnc2c1 [Example 54, 4-methyl-N-(1-methyl-1H-pyrazol-5-yl)-3-(3-(3-methyl-2-thienyl)[1,2,4]triazolo[4,3-a]pyridin-7-yl)benzamide] | < 25 nM | < 25 nM | 25 to 100 nM |  | 
8 | Cc1ccc(C(=O)NC2CC2)cc1-c1ccn2c(-c3sccc3C)nnc2c1 [Example 53, N-cyclopropyl-4-methyl-3-(3-(3-methyl-2-thienyl)[1,2,4]triazolo[4,3-a]pyridin-7-yl)benzamide] | < 25 nM | 25 to 100 nM | 25 to 100 nM |  | 
9 | Cc1c(F)cc(C(=O)NC2CC2)cc1-c1ccn2c(-c3ccccc3C(F)(F)F)nnc2c1 [Example 74, N-cyclopropyl-3-fluoro-4-methyl-5-(3-(2-(trifluoromethyl)phenyl)[1,2,4]triazolo[4,3-a]pyridin-7-yl)benzamide] | < 25 nM | < 25 nM | < 25 nM |  | 
10 | Cc1ccc(C(=O)NC2CC2)cc1-c1ccn2c(N3CCOCC3)nnc2c1 [Example 101, N-cyclopropyl-4-methyl-3-(3-(4-morpholinyl)[1,2,4]triazolo[4,3-a]pyridin-7-yl)benzamide] | 25 to 100 nM | 100 to 250 nM | 100 to 250 nM |  | 
11 | CNC(=O)c1ccc(C)c(-c2ccn3c(-c4ccccc4Cl)nnc3c2)c1 [Example 40, 3-(3-(2-chlorophenyl)[1,2,4]triazolo[4,3-a]pyridin-7-yl)-N,4-dimethylbenzamide] | 25 to 100 nM | 25 to 100 nM | 100 to 250 nM |  | 
12 | Cc1ccc(C(=O)NC2CC2)cc1-c1ccn2c(N3CCCCC3)nnc2c1 [Example 99, N-cyclopropyl-4-methyl-3-(3-(1-piperidinyl)[1,2,4]triazolo[4,3-a]pyridin-7-yl)benzamide] | < 25 nM | 25 to 100 nM | 250 to 1000 nM |  | 
13 | Cc1ccc(C(=O)Nc2ccnn2C)cc1-c1ccn2c(-c3cccc(F)c3Cl)nnc2c1 [Example 41, 3-(3-(2-chloro-3-fluorophenyl)[1,2,4]triazolo[4,3-a]pyridin-7-yl)-4-methyl-N-(1-methyl-1H-pyrazol-5-yl)benzamide] | < 25 nM | < 25 nM | 25 to 100 nM |  | 
14 | Cc1c(F)cc(C(=O)NC2CC2)cc1-c1ccn2c(-c3c(Cl)cccc3Cl)nnc2c1 [Example 59, N-cyclopropyl-3-(3-(2,6-dichlorophenyl)[1,2,4]triazolo[4,3-a]pyridin-7-yl)-5-fluoro-4-methylbenzamide] | < 25 nM | < 25 nM | < 25 nM |  | 

The next lines start with the values.

Row | IC50 (p38α) | IC50 (THP1 cells; Homo sapiens, THP-1) | IC50 (monocytes; Homo sapiens, Monocyte) | IC50 (THP1 cells; read-out: THP-1 cell assay) | IC50 (monocytes) | Structure (SMILES)
15 | < 25 nM | 25 to 100 nM | 100 to 250 nM |  |  | Cc1ccc(C(=O)NC2CC2)cc1-c1ccn2c(-c3cccc(F)c3Cl)nnc2c1 [Example 39, 3-(3-(2-chloro-3-fluorophenyl)[1,2,4]triazolo[4,3-a]pyridin-7-yl)-N-cyclopropyl-4-methylbenzamide]
16 | < 25 nM | < 25 nM | 25 to 100 nM |  |  | Cc1c(F)cc(C(=O)NC2CC2)cc1-c1ccn2c(-c3ccccc3Cl)nnc2c1 [Example 51, 3-(3-(2-chlorophenyl)[1,2,4]triazolo[4,3-a]pyridin-7-yl)-N-cyclopropyl-5-fluoro-4-methylbenzamide]
17 | < 25 nM |  |  | 25 to 100 nM | 100 to 250 nM | Cc1ccc(C(=O)NC2CC2)cc1-c1ccn2c(C34CC5CC(CC(C5)C3)C4)nnc2c1 [Example 98, N-cyclopropyl-4-methyl-3-(3-((3s,5s,7s)-tricyclo[3.3.1.1~3,7~]dec-1-yl)[1,2,4]triazolo[4,3-a]pyridin-7-yl)benzamide]
18 | < 25 nM | 25 to 100 nM | 25 to 100 nM |  |  | Cc1ccc(C(=O)NC2CC2)cc1-c1ccn2c(C(C)(C)C)nnc2c1 [Example 105, N-cyclopropyl-3-(3-(1,1-dimethylethyl)[1,2,4]triazolo[4,3-a]pyridin-7-yl)-4-methylbenzamide]
19 | < 25 nM | 25 to 100 nM | 25 to 100 nM |  |  | Cc1ccc(C(=O)NC2CC2)cc1-c1ccn2c(-c3ccccc3F)nnc2c1 [Example 2, N-cyclopropyl-3-(3-(2-fluorophenyl)[1,2,4]triazolo[4,3-a]pyridin-7-yl)-4-methylbenzamide]
20 | < 25 nM | 25 to 100 nM | 100 to 250 nM |  |  | Cc1ccc(C(N)=O)cc1-c1ccn2c(-c3ccccc3Cl)nnc2c1 [Example 44, 3-(3-(2-chlorophenyl)[1,2,4]triazolo[4,3-a]pyridin-7-yl)-4-methylbenzamide]
21 | < 25 nM | < 25 nM | 25 to 100 nM |  |  | Cc1ccc(C(=O)NC2CC2)cc1-c1cc2nnc(-c3ccccc3Cl)n2cc1C [Example 35, 3-(3-(2-chlorophenyl)-6-methyl[1,2,4]triazolo[4,3-a]pyridin-7-yl)-N-cyclopropyl-4-methylbenzamide]
22 | < 25 nM | < 25 nM | < 25 nM |  |  | Cc1c(F)cc(C(=O)NC2CC2)cc1-c1ccn2c(-c3c(F)cccc3F)nnc2c1 [Example 64, N-cyclopropyl-3-(3-(2,6-difluorophenyl)[1,2,4]triazolo[4,3-a]pyridin-7-yl)-5-fluoro-4-methylbenzamide]
23 | < 25 nM | 25 to 100 nM | 25 to 100 nM |  |  | Cc1ccc(C(=O)NC2CC2)cc1-c1ccn2c(CC(C)(C)C)nnc2c1 [Example 25, N-cyclopropyl-3-(3-(2,2-dimethylpropyl)[1,2,4]triazolo[4,3-a]pyridin-7-yl)-4-methylbenzamide]
